Assay: Thermo Scientific Acclaim RSLC 120 C18, 100 × 2.1 mm, 2.2 µm, 30 °C; A: 90% water + 10% methanol + 0.01% formic acid + 5 mM ammonium formate; B: methanol + 0.01% formic acid + 5 mM ammonium formate; gradient (min/%B) 0.1/1 3/39 14/99.9 16/99.9
Settings: stereoisomer not certain

Compound | LC retention time [min]
CC1C2Cc3ccc(O)cc3C1(C)CCN2CCc1ccccc1 (centres undefined) | 6.08
CNC(C)C(=O)c1ccccc1 (centres undefined) | 3.68
O=C(c1cccc2ccccc12)c1cn(CC2CCCCC2)c2ccccc12 | 13
CC(Cc1ccc(O)cc1)NCC(O)c1cc(O)cc(O)c1 (centres undefined) | 3.61
CCNC1CC(C)S(=O)(=O)c2sc(S(N)(=O)=O)cc21 (centres undefined) | 3.19
N#CCCCCn1cc(C(=O)c2cccc3ccccc23)c2ccccc21 | 9.69
O=C(Oc1ccccc1)c1ccccc1C(=O)Oc1ccccc1 | 11.2
CC(C)CNC(=O)N1CCNC1=O | 5.74
CCOC(=O)C1CC(=O)C(=C(O)C2CC2)C(=O)C1 (centres undefined) | 8.45
CCOP(=O)(OCC)Oc1cc(C)nc(C(C)C)n1 | 8.65
CCCCOC(=O)c1ccccc1C(=O)OCCCC | 12
CCCCCCCn1cc(C(=O)c2cccc3ccccc23)c2ccccc21 | 13.4
CN(C)c1ccccc1 | 6.26
CCCCN(CCCC)SN(C)C(=O)Oc1cccc2c1OC(C)(C)C2 | 13.8
CCNC(C)Cc1ccccc1 (centres undefined) | 4.4
COC(=O)c1ccccc1C(=O)OC | 6.63
CCCCCCCCCCCC(CC1OC(=O)C1CCCCCC)OC(=O)C(CC(C)C)NC=O (centres undefined) | 14.6
Cc1ccc(C(=O)C(C)N2CCCC2)cc1 (centres undefined) | 4.76
CCCCNC(=O)n1c(NC(=O)OC)nc2ccccc21 | 5.46
COCCOc1c(OC)cc(Cc2cnc(N)nc2N)cc1OC | 4.24
CNC(=O)Oc1cccc2ccccc12 | 7.46
CCCSP(=O)(OCC)SCCC | 10.2

Compound | LC retention time [min]
O=C(Nc1ccccc1)Nc1cnns1 | 7.17
C#CCNC(C)Cc1ccccc1 (centres undefined) | 4.66
CC(C)C1(C)N=C(c2nc3ccccc3cc2C(=O)O)NC1=O (centres undefined) | 6.1
CSc1nc(N)nc(NC(C)(C)C)n1 | 8.43
CC(C)(C)C(O)C(Oc1ccc(-c2ccccc2)cc1)n1cncn1 (centres undefined) | 11.3
CC1COCc2cc3c(cc21)C(C)(C)C(C)C3(C)C (centres undefined) | 13.9
CCCCCn1nc(C(=O)NC23CC4CC(CC(C4)C2)C3)c2ccccc21 | 14
C#CC1(OC(C)=O)CCC2C3CCC4=CC(=O)CCC4C3CCC21C (centres undefined) | 10.8
CNC(=O)ON=C(SC)C(=O)N(C)C | 3.77
CNC(C)C(O)c1ccccc1 (centres undefined) | 3.76
CN1CCCCC(n2cc(C(=O)c3cccc4ccccc34)c3ccccc32)C1 (centres undefined) | 8.61
CC=CCC1=C(C)C(OC(=O)C2C(C=C(C)C(=O)OC)C2(C)C)CC1=O (centres undefined) | 11.6
COc1ccc(CC(C)N)cc1 (centres undefined) | 4.34
CCCN(CCC)C(=O)SCC | 10.7
COC=C(C(=O)OC)c1ccccc1Oc1cc(Oc2ccccc2C#N)ncn1 | 9.02
CP(=O)(O)CCC(N)C(=O)O (centres undefined) | 1.44
CCc1c(C)[nH]c2c1C(=O)C(CN1CCOCC1)CC2 (centres undefined) | 4.89
CCNc1nc(NC(C)(C)C)nc(OC)n1 | 9.16
CCSC(=O)N(CC)C1CCCCC1 | 11.7
N#CC(CCN1CCC(C(N)=O)(N2CCCCC2)CC1)(c1ccccc1)c1ccccc1 | 8.19
COP(=S)(OC)SCOC(C)=O | 7.16
CSC1=NC(C)(c2ccccc2)C(=O)N1Nc1ccccc1 (centres undefined) | 9.22

Compound | LC retention time [min]
Cc1ccccc1CC(C)N (centres undefined) | 5.17
COP(=S)(OC)Oc1ccc(Sc2ccc(OP(=S)(OC)OC)cc2)cc1 | 12.4
CCN(CC)CCOC(=O)C1(C2CCCCC2)CCCCC1 | 9.99
CC12CCC(=O)C=C1CCC1C2CCC2(C)C(C(=O)CO)CCC12 (centres undefined) | 13.7
CC(C)(C)Nc1nc(N)[nH]c(=O)n1 | 3.99
COc1cc2c(cc1OC)CC(=O)N(CCCN(C)CC1Cc3cc(OC)c(OC)cc31)CC2 (centres undefined) | 5.02
CNC(C)C(=O)c1ccc(C)cc1 (centres undefined) | 4.49
C=C(C)C1CCC(C)=CC1c1c(O)cc(CCCCC)cc1O (centres undefined) | 12.7
CC=C(C)C(=O)OC1CC(OC(C)=O)C2(C(=O)OC)COC3C2C12COC(O)(C(=O)OC)C2C(C)(C12OC1(C)C1CC2OC2OC=CC21O)C3O (centres undefined) | 7.56
CNC(C)Cc1ccc2c(c1)OCO2 (centres undefined) | 4.18
CCCNC(C)C(=O)Nc1c(C)csc1C(=O)OC (centres undefined) | 4.69
CCN(C(C)=O)c1cccc(-c2ccnc3c(C#N)cnn23)c1 | 6.61
CC(=O)OC1CN2CCC1CC2 (centres undefined) | 4.87
COc1ccc2c3c([nH]c2c1)C(C)=NCC3 | 5.06
CCCCOC(=O)c1ccccc1C(=O)OCc1ccccc1 | 12.4
CNC(C)Cc1ccccc1 (centres undefined) | 4.21
CCC1C(=O)OCC1Cc1cncn1C (centres undefined) | 2.74
COc1ccc(CC(C)N)cc1OC (centres undefined) | 3.94
CC=C1CC(C)C(O)(CO)C(=O)OCC2=CC[N+]3([O-])CCC(OC1=O)C23 (centres undefined) | 4.33
CON=C(C(=O)NC1C(=O)N2C(C(=O)[O-])=C(C[n+]3cccc4c3CCCC4)CSC12)c1csc(N)n1 (centres undefined) | 3.76
Cc1cccc(CC(C)N)c1 (centres undefined) | 5.17

Continued, values first:

LC retention time [min] | Compound
3.38 | CC(C)(ON=C(C(=O)NC1C(=O)N2C(C(=O)[O-])=C(C[n+]3ccccc3)CSC12)c1csc(N)n1)C(=O)O (centres undefined)
7.19 | c1ccc(CN(CCN2CCCC2)c2ccccc2)cc1
5.28 | CC(=O)Nc1ccc(S(=O)(=O)Nc2cc(C)on2)cc1
6.94 | COc1ccc(C(C[N+](C)(C)[O-])C2(O)CCCCC2)cc1 (centres undefined)
6.89 | CCN(CC)C(=O)C(C#N)=Cc1cc(O)c(O)c([N+](=O)[O-])c1
8.98 | CCCCC1C(=O)N(c2ccccc2)N(c2ccccc2)C1=O
5.08 | COC(=O)C1C(O)CCC2CN3CCc4c([nH]c5ccccc45)C3CC21 (centres undefined)
10.2 | CCCCN1CC(=O)N2C(Cc3c([nH]c4ccccc34)C2c2ccc3c(c2)OCO3)C1=O (centres undefined)
6.43 | CCCCNc1ccc(C(=O)OCCN(C)C)cc1
9.82 | Cc1ccc(C(C)NC(=O)C(NC(=O)OC(C)C)C(C)C)cc1 (centres undefined)
9.49 | CCCOc1ccc(S(=O)(=O)N2CCN(CCO)CC2)cc1-c1nc2c(CCC)cn(CC)c2c(=O)[nH]1
7.63 | C[N+]1([O-])CCN2c3ccccc3Cc3ccccc3C2C1 (centres undefined)
7.69 | CN(C)CCCN1c2ccccc2Sc2ccccc21
4.86 | COc1cc(C(=O)NCc2ccc(OCCN(C)C)cc2)cc(OC)c1OC
5.91 | CC(C)NCC(O)COc1ccc(COCCOC(C)C)cc1 (centres undefined)
2.98 | Nc1nc2c(ncn2CCC(CO)CO)c(=O)[nH]1
8.51 | CNCCC=C1c2ccccc2CCc2ccccc21
3.74 | Nc1nc2ccccc2[nH]1
8.43 | Cc1ccsc1C(=CCCN1CCCC(C(=O)O)C1)c1sccc1C (centres undefined)
5.73 | CCN(CC)C(=O)C1(c2ccccc2)CC1CN (centres undefined)
8.11 | CCCc1nc(C)c2c(=O)[nH]c(-c3cc(S(=O)(=O)N4CCN(CC)CC4)ccc3OCC)nn12
8.53 | CC(C(=O)O)c1cccc(C(=O)c2ccccc2)c1 (centres undefined)
6.83 | CC12CCC3c4ccc(O)cc4CCC3C1CC(O)C2O (centres undefined)
10.6 | CCOC(=O)NCCOc1ccc(Oc2ccccc2)cc1
5.24 | CCCN1CC(NS(=O)(=O)N(CC)CC)CC2Cc3c(O)cccc3CC21 (centres undefined)

LC retention time [min] | Compound
4.77 | Nc1c2c(nc3ccccc13)CCCC2
7.76 | O=C(O)Cc1cccc2ccccc12
10.1 | c1ccc(Nc2ccccc2)cc1
7.39 | CN(C)S(=O)(=O)c1ccc2c(c1)N(CCCN1CCC(CCO)CC1)c1ccccc1S2
6.66 | Cc1ccc(C(=CCN2CCCC2)c2cccc(C=CC(=O)O)n2)cc1
7.23 | Cc1c(C(C)C)c(=O)n(-c2ccccc2)n1C
3.98 | CCCN(CCC)CCc1cccc2c1CC(=O)N2
6.33 | N#Cc1ccc(C(c2ccc(C#N)cc2)n2cncn2)cc1
7.84 | CCCc1nn(C)c2c(=O)[nH]c(-c3cc(S(=O)(=O)N4CCN(CC)CC4)ccc3OCC)nc12
12.4 | CCCCCCCCc1ccc(OCCO)cc1
3.21 | CCN(CC)CCOC(=O)c1ccc(N)cc1
4.69 | CCCNC(C)C(=O)Nc1ccccc1C (centres undefined)
2.63 | N=C(N)c1ccccc1
3.88 | COc1ccc(Cc2cnc(N)nc2N)cc1OC
5.34 | CC(CN(C)C)CN1c2ccccc2S(=O)(=O)c2ccccc21 (centres undefined)
11.1 | CC(C)c1nc(CN(C)C(=O)NC(C(=O)NC(Cc2ccccc2)CC(O)C(Cc2ccccc2)NC(=O)OCc2cncs2)C(C)C)cs1 (centres undefined)
7.44 | Cc1ccccc1C(OCCN(C)C)c1ccccc1 (centres undefined)
5.32 | CCn1nc(C(=O)O)c(=O)c2cc3c(cc21)OCO3
6.04 | NC(=O)N1c2ccccc2C2OC2c2ccccc21 (centres undefined)
3.09 | CC(C)NCC(O)COc1ccc(CC(N)=O)cc1 (centres undefined)
4.54 | CCN(CC)CC(=O)Nc1c(C)cccc1C
5.21 | Cc1c(N(C)C)c(=O)n(-c2ccccc2)n1C
4.71 | Cc1noc(NS(=O)(=O)c2ccc(N)cc2)c1C
8.31 | COC(=O)C1=C(C)NC(C)=C(C(=O)OC)C1c1ccccc1[N+](=O)[O-]
